Laboratory results as given in article PMC7893202 (Acta Pharmaceutica Sinica. B, 2020).

Biological target: T1, estrogen receptor-alpha (ERα) (Homo sapiens, UniProt P03372)
T1 sequence (P03372 311-547 limits assumed): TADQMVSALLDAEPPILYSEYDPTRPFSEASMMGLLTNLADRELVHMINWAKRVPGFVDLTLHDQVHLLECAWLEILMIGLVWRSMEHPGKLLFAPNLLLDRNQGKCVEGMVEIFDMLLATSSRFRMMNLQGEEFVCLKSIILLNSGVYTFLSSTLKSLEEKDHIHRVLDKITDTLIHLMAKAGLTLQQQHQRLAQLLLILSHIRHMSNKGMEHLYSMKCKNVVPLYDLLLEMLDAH
Assay: fluorescence titration
Type: binding

Kd: 10 nM
Compound: Cc1cc(O)cc2oc3cc(O)cc(O)c3c(=O)c12 [compound 1, norlichexanthone]
